In PMC7587432, “IP7-SPX Domain Interaction Controls Fungal Virulence by Stabilizing Phosphate Signaling Machinery” (mBio, 2020):

Molecular target: T1, Pho81 (Pho81SPX-GFP; CnPho81) (Cryptococcus neoformans, UniProt J9VLD1)
T1 construct: gene CNAG_02541; full-length Pho81 (N-terminal SPX, ankyrin repeat and GDE domains) with C-terminal GFP, expressed from the GDE2 promoter in C. neoformans H99; whole cell lysate, endogenous Pho80/Pho85/Pcl6/7 present
Experiment: affinity capture from cell lysate on 5-PCP-IP5-conjugated resin, anti-GFP Western blot
Type: biochemical
Conditions: binds; resin-immobilised analog of 5-PP-IP5; Pi-conjugated resin as control; 50 mM Tris pH 7.5, 150 mM NaCl, 1 mM EDTA, 4 °C, 2 h; SPX domain lysine surface cluster

O=P(O)(O)CP(=O)(O)O[C@H]1[C@H](OP(=O)(O)O)[C@@H](OP(=O)(O)O)[C@@H](OP(=O)(O)O)[C@@H](OP(=O)(O)O)[C@@H]1OP(=O)(O)O [5-PCP-IP5]
affinity capture from cell lysate on 5-PCP-IP5-conjugated resin, anti-GFP Wester: native Pho81 binds to the 5-PCP-IP5, but not to the Pi, resin
